Columns and labels:
[1] = system: chronic heart failure-induced rats (abdominal aorta-to-inferior vena cava fistula); experiment: M-mode echocardiography in aortocaval fistula rat model of chronic heart failure; type: in vivo, Sprague-Dawley rats; conditions: CHF rats, 30 mg/kg orally for 8 weeks, mean±SD
Method: (§1) Male Sprague-Dawley rats, weighing 220-240 g, were randomly divided into three groups: a normal control group (Normal), a heart failure control group (CHF) and a treatment group (CHF plus cpd.1), each group consisting of seven rats. The pyrazolopyrimidinone derivative was orally administered to heart failure-developed animals of the treatment group in a dose of 30 mg/kg. Normal control animals were subjected to a sham operation. […] After 8 weeks, 5 ml/kg of a solvent was orally administered to the normal control and heart failure control groups for 8 weeks, and the pyrazolopyrimidinone derivative was orally administered to the treatment group at a dose of 30 mg/kg for 8 weeks. Then, rats were anesthetized with pentobarbital (50 mg/kg, i.p.), and subjected to M-mode echocardiography in order to evaluate interventricular septum wall thickness (IWT) at end-systole (S) and end-diastole (D) of the left ventricle, posterior left ventricular wall thickness (PWT), left ventricular end-systolic dimension (LVESD), and left ventricular end-diastolic dimension (LVEDD). The relative wall thickness (RWT) was calculated according to the following equation: [IWT(D)+PWT(D)]/LVEDD, and is given in Table 1, below.

[2] = system: atrial natriuretic peptide (ANP); experiment: Serum atrial natriuretic peptide (ANP) levels in heart failure rats; type: in vivo, Sprague-Dawley rats; conditions: CHF rats, 30 mg/kg orally for 8 weeks; mean±SD; CHF control 0.040±0.004, normal 0.029±0.003
Method: (§2) Male Sprague-Dawley rats, weighing 220-240 g, were randomly divided into three groups: a normal control group
(§3) (Normal), a heart failure control group (CHF) and a treatment group (CHF plus cpd.1), each group consisting of seven rats. The pyrazolopyrimidinone derivative was orally administered to heart failure-developed animals of the treatment group in a dose of 30 mg/kg.
as §1, with “Normal” for “Male Sprague-Dawley rats, weighing 220-240 g, were randomly divided into three groups: a normal control group (Normal), a heart failure control group (CHF) and a treatment group (CHF plus cpd.1), each group consisting of seven rats. The pyrazolopyrimidinone derivative was orally administered to heart failure-developed animals of the treatment group in a dose of 30 mg/kg. Normal”
(§4) After the echocardiographic measurements, blood samples were collected from abdominal aortas to prepare serum samples. […] All values are expressed as mean±SD.

ANP mRNA = ANP mRNA levels in left ventricular tissue by RT-PCR; type: in vivo, Sprague-Dawley rats; conditions: CHF rats, 30 mg/kg orally for 8 weeks, mean±SD, CHF control 0.963±0.114, normal 0.607±0.169
Method: as §2, §3
as §1, with “Normal” for “Male Sprague-Dawley rats, weighing 220-240 g, were randomly divided into three groups: a normal control group (Normal), a heart failure control group (CHF) and a treatment group (CHF plus cpd.1), each group consisting of seven rats. The pyrazolopyrimidinone derivative was orally administered to heart failure-developed animals of the treatment group in a dose of 30 mg/kg. Normal”
as §4

[3] = system: collagen deposition (ventricular fibrosis); experiment: Collagen deposition in left ventricular tissue (Masson's trichrome) as marker of ventricular fibrosis; type: in vivo, Sprague-Dawley rats; conditions: CHF rats, 30 mg/kg orally for 8 weeks, mean±SD, CHF control 0.928±0.228, normal 0.384±0.103
Method: as §2, §3
as §1, with “Normal” for “Male Sprague-Dawley rats, weighing 220-240 g, were randomly divided into three groups: a normal control group (Normal), a heart failure control group (CHF) and a treatment group (CHF plus cpd.1), each group consisting of seven rats. The pyrazolopyrimidinone derivative was orally administered to heart failure-developed animals of the treatment group in a dose of 30 mg/kg. Normal”
as §4

[4] = Physicochemical properties: pKa
[5] = Physicochemical properties: solubility
[6] = In vivo half-life compared to sildenafil; conditions: longer than sildenafil
[7] = biological target: phosphodiesterase-5 (PDE-5) (Homo sapiens, UniProt O76074); conditions: cited from earlier work

CCCOc1ccc(S(=O)(=O)NCCC2CCCN2C)cc1-c1nc2c(CCC)nn(C)c2c(=O)[nH]1 (stereo not shown) [cpd.1, 5-[2-propyloxy-5-(1-methyl-2-pyrrolidinyleneamidosulfonyl)phenyl]-1-methyl-propyl-1,6-dihydro-7H-pyrazolo(4,3-d)pyrimidine-7-one]
RWT, relative wall thickness [IWT(D)+PWT(D)]/LVEDD ([1]; CHF control 0.34 ± 0.02, normal 0.42 ± 0.05): 0.42 ± 0.05 | IWT(D), interventricular septum wall thickness at end-diastole ([1]; CHF control 1.56 ± 0.09, normal 1.81 ± 0.20): 1.74 ± 0.13 mm | PWT(D), posterior left ventricular wall thickness at end-diastole ([1]; CHF control 1.64 ± 0.11, normal 1.83 ± 0.13): 1.78 ± 0.04 mm | PWT(S), posterior left ventricular wall thickness at end-systole ([1]; CHF control 2.54 ± 0.18, normal 2.89 ± 0.15): 2.80 ± 0.10 mm | IWT(S), interventricular septum wall thickness at end-systole ([1]; CHF control 2.56 ± 0.11, normal 2.83 ± 0.17): 2.74 ± 0.11 mm | LVESD, left ventricular end-systolic dimension ([1]; CHF control 6.20 ± 0.70, normal 5.43 ± 0.31): 4.68 ± 0.38 mm | LVEDD, left ventricular end-diastolic dimension ([1]; CHF control 9.75 ± 0.85, normal 8.69 ± 0.56): 8.45 ± 0.62 mm | serum ANP levels [2]: 0.033 ± 0.003 ng/mL | ANP mRNA levels in left ventricular tissues (ANP mRNA): 0.739±0.120 | amount of collagen deposition in ventricular tissue [3]: 0.604±0.214 | pKa1 [4]: about 6.5 | pKa2 [4]: about 12.5 | solubility in acetic acid, methanol and chloroform ([5]; acetic acid, methanol and chloroform): readily dissolved | solubility in water ([5]; water): difficult to dissolve in water | in vivo half-life relative to sildenafil [6]: 3 times | inhibitory activity against PDE-5 [7]: strong and selective inhibitory activity

Source: patent US20100173915A1, “PHARMACEUTICAL COMPOSITIONS FOR THE TREATMENT OF CHRONIC HEART FAILURE COMPRISING PYRAZOLOPYRIMIDINONE DERIVATIVE COMPOUND” (DONG-A PHARMACEUTICAL. CO., LTD, priority 2007, published 2010)
